Measurements from patent publication US20240425497A1, “Cbl-b Inhibitors and Methods of Use Thereof” (ARCUS BIOSCIENCES, INC., priority 2023, published 2024).

Legend:
[1] = target: Cbl-b (Homo sapiens (Human), UniProt Q13191); test: Cbl-b probe displacement HTRF binding assay; settings: 0.4 nM biotinylated Cbl-b, 150 nM BODIPY probe
Outline: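 Biotinylated Cbl-b (0.4 nM final) was preincubated 60 min at room temperature with compound (20-point 1:2 series, top 10 μM final), then BODIPY probe (150 nM final) was added for 15 min before streptavidin-terbium cryptate. Buffer was 20 mM Hepes, 150 mM NaCl, 0.01% Triton X-100, 0.5 mM TCEP, 0.01% BSA; IC50 was derived from a four-parameter fit of HTRF signal loss.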

[2] = test system: Jurkat cells; test: IL-2 secretion assay in CD3/CD28-activated Jurkat cells (AlphaLISA); assay type: cell-based, human; settings: CD3/CD28 activation, 24 h
Outline: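 Jurkat cells in Opti-MEM (50,000/well) preincubated 1 h at 37° C with compound (16-point 1:2 dilution, final 10 μM to […]), then activated with CD3/CD28 T cell activator for 24 h at 37° C. Secreted IL-2 in supernatant quantified by AlphaLISA; EC50 from 4-parameter logistic fit.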

Cbl-b, sequence (Q13191 whole entry, species assumed): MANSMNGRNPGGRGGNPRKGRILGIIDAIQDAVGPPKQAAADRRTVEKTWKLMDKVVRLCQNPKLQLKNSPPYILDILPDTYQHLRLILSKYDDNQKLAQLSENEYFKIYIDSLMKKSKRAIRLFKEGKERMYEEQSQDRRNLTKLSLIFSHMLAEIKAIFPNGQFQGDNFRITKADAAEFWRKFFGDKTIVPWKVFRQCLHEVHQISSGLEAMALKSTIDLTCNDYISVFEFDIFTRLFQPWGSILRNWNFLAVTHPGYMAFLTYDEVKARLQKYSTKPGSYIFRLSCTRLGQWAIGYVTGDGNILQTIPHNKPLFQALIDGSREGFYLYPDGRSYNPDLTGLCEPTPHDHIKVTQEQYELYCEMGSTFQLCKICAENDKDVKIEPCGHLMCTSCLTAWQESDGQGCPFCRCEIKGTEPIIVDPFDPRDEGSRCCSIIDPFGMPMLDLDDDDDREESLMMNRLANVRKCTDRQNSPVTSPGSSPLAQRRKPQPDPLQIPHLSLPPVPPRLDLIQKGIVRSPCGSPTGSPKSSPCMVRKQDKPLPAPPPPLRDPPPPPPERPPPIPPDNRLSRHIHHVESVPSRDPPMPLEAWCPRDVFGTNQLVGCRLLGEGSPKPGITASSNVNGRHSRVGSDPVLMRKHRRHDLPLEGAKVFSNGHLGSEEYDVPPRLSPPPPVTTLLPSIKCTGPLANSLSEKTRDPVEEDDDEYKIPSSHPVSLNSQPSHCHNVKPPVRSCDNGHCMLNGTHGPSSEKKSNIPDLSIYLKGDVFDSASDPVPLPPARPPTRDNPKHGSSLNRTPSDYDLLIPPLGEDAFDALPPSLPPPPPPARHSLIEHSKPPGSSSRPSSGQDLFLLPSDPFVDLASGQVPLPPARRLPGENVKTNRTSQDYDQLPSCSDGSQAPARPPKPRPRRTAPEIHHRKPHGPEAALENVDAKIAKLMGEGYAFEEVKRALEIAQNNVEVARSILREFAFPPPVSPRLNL

| SMILES | IC50 [1] [nM] | EC50 [2] [nM] | EC50 ([2]; Homo sapiens) [nM] |
| --- | --- | --- | --- |
| N#Cc1c[nH]c2c(=O)n(-c3cc(-c4ccc(F)cc4C(=O)C4CC(F)C4)cc(C4CC4)n3)cc(C(F)(F)F)c12 (centres unmarked) [Example 51, 6-[6-cyclopropyl-4-[4-fluoro-2-(3-fluorocyclobutanecarbonyl)phenyl]pyridin-2-yl]-7-oxo-4-(trifluoromethyl)-1H-pyrrolo[2,3-c]pyridine-3-carbonitrile] | < 100 | 100 to 1000 |  |
| O=C(c1cc(F)ccc1-c1cc(C2CC2)nc(-n2cc(C(F)(F)F)c3cc(CO)[nH]c3c2=O)c1)C1CC(F)C1 (centres unmarked) [Example 52, 6-[6-cyclopropyl-4-[4-fluoro-2-(3-fluorocyclobutanecarbonyl)phenyl]pyridin-2-yl]-2-(hydroxymethyl)-4-(trifluoromethyl)-1H-pyrrolo[2,3-c]pyridin-7-one] | < 100 |  | 100 to 1000 |
| N#Cc1c(CO)[nH]c2c(=O)n(-c3cc(-c4ccc(F)cc4C(=O)C4CC(F)C4)cc(C4CC4)n3)cc(C(F)(F)F)c12 (centres unmarked) [Example 53, 6-[6-cyclopropyl-4-[4-fluoro-2-(3-fluorocyclobutanecarbonyl)phenyl]pyridin-2-yl]-2-(hydroxymethyl)-7-oxo-4-(trifluoromethyl)-1H-pyrrolo[2,3-c]pyridine-3-carbonitrile] | < 100 |  | 100 to 1000 |
| N#Cc1cn(-c2cc(-c3ccc(F)cc3C(=O)N3CC(F)C3)cc(C3CC3)n2)c(=O)c2[nH]c(CO)cc12 [Example 54, 6-(6-cyclopropyl-4-{4-fluoro-2-[(3-fluoro-1-azetidinyl)carbonyl]phenyl}-2-pyridyl)-2-(hydroxymethyl)-7-oxo-1,6-dihydro-1,6-diaza-4-indenecarbonitrile] | < 100 |  | 100 to 1000 |
